The values that follow come from PMC5036131, “Fragment-based discovery of a new family of non-peptidic small-molecule cyclophilin inhibitors with potent antiviral activities” (Nature Communications, 2016).

Data set [1] has as its target T1, CypB (Homo sapiens, UniProt P23284).
T1 construct: hexahistidine tag (His-Tag) (C); made in house; host or cells: E. coli C41(DE3)
As to the kind of experiment: biochemical. Type of data set: biochemical. As to conditions: PPIase enzyme assay, 20 °C, mean±s.d.; read-out: CypB IC50. How it is done: CypA and CypB proteins carrying a hexahistidine tag (His-Tag) at their carboxy terminus were expressed in E. coli and purified. Briefly, cultures of C41(DE3) cells were grown at 37 °C for 1 h until the culture reached an OD of 0.6 at 600 nm and then induced with 1 mM isopropyl-β-D-thiogalactopyranoside for 4 h at 37 °C (CypA) or overnight at 22 °C (CypB). Cell pellets were resuspended in a lysis buffer 20 mM NaH2PO4 pH 7.8, 300 mM NaCl, 7 mM β-mercaptoethanol, 1 mg ml^−1 lysozyme, 0.1 U μl^−1 desoxyribonuclease and complete protease inhibitor tablets (Roche Diagnostics Corporation, Indianapolis, Indiana). […] The bound protein was eluted in 1 ml fractions with a buffer composed of 20 mM NaH2PO4 pH 7.8, 300 mM NaCl, 250 mM imidazole, 7 mM β-mercaptoethanol and 10% glycerol, monitored by the Bradford colorimetric assay. The purity of each cyclophilin was determined by Coomassie-stained SDS–PAGE analysis.

The nature of data set [2]: Kinetic solubility. The note with it: target concentration 100 μM, 24 h; for Solubility HCl (pH 1.0): 0.1 N HCl pH 1.0. The data set is classed as physicochemical. As to the method: The solutions were incubated at room temperature with shaking for 24 h and were then centrifuged, and the recovered supernatants assayed by HPLC with diode array ultraviolet/visible detection. Solubility values were calculated by comparing the amount (by chromatographic peak area) of compound detected in the defined test solution with an unextracted standard. Relative chemical stabilities of compounds after 24 h incubation in PBS at 37 °C were also determined. The solubility and chemical stability of a quality-control compound (amprenavir) were determined in parallel.

The nature of data set [3]: Chemical stability, 24 h. Type of data set: physicochemical. The note with it: 37 °C, remaining.
Data set [4] in a line: Human plasma protein binding, equilibrium dialysis. The note with it: 2 μM, 37 °C, 3 h dialysis. Type of data set: in vitro ADME. As to the method: The extent of binding to pooled human plasma and to cell culture medium containing 10% fetal bovine serum was determined by equilibrium dialysis against isotonic phosphate buffer. Equilibrium dialysis was conducted at 37 °C with initial concentrations of compounds of 2 μM in the non-buffer matrix. A 3 h dialysis time was used for equilibration. Following dialysis, plasma samples were drained into pre-weighed polypropylene tubes containing buffer and buffer samples were drained into pre-weighed tubes containing blank plasma. Post-dialysis plasma and buffer weights were measured and recorded for concentration and recovery calculations. After precipitation and centrifugation, LC-MS/MS assays were used for the analysis of each of the protein/phosphate buffer-mixed matrices. Relative binding to human plasma and cell culture medium was determined in a similar manner, except that the two matrices were dialysed against each other directly and the compound was spiked into both matrices. After equilibration, the plasma sample was diluted with blank cell culture medium and the cell culture medium diluted with blank plasma.
In general terms: In equilibrium dialysis only unbound substance equilibrates across the membrane.

A short description of data set [5]: Stability with hepatic microsomal fractions. The note with it: human microsomes 0.5 mg protein/ml, NADPH, 3 μM. Type of data set: in vitro ADME. As to the method:
The compounds (3 μM) were incubated in duplicate for up to 1 h in the presence of human hepatic microsomal fractions (0.5 mg protein ml^−1 final) at 37 °C. The addition of cofactor solution (NADPH generating system) initiated the reaction and aliquots were removed at 0, 5, 15, 30, 45 and 60 min after the start. The concentrations of the compounds in each sample were determined using specific LC-MS/MS assays. The half-life for the disappearance of each was determined by fitting the concentration-time data with a monophasic exponential model. A control compound (verapamil) was run in parallel to test the enzymatic integrity of the microsomal fractions.

Data set [6] addresses T2, CYP1A2 (Homo sapiens, UniProt P05177).
T2 sequence (P05177 1-516): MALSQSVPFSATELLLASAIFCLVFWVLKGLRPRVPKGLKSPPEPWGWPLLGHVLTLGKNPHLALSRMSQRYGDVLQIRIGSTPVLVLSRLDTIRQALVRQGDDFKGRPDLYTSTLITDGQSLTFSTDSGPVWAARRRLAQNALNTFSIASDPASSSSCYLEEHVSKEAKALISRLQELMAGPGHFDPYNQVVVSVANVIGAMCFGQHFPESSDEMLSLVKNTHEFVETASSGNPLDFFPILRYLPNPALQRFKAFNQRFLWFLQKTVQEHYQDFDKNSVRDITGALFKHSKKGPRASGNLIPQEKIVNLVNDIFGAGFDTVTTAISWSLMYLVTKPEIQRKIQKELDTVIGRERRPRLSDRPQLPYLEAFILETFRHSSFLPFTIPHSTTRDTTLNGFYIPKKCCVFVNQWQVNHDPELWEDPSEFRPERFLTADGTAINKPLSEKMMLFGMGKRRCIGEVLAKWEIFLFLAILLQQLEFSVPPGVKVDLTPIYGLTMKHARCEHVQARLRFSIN
The data set is described as follows: Metabolism by recombinant human cytochrome P450, CYP1A2. Type of data set: in vitro ADME. The note with it: recombinant enzyme. How it is done:
[…] of compound was incubated with individual bacterially expressed recombinant human cytochromes P450 co-expressed with human NADPH cytochrome P450 reductase. […] Enzyme-selective positive control substrates were tested in parallel.

Data set [7] addresses T3, CYP3A4 (Homo sapiens, UniProt P08684).
T3 construct: incubated with human hepatic microsomal fractions and NADPH; from tissue; host or cells: human hepatic microsomal fractions
As to the kind of experiment: Cytochrome P450 enzyme inhibition assay, CYP3A4. The data set is classed as in vitro ADME. As to conditions: human hepatic microsomal fractions, up to 25 μM. How it is done: (§1) Up to 25 μM of compounds 29 and 30 was incubated with human hepatic microsomal fractions and NADPH in the presence of individual probe substrates. All assays were designed so that conditions were linear with respect to time and protein concentration. Substrates were present at concentrations equal to or lower than their respective Km values. Enzyme selective products were determined by fluorometry (ethoxyresorufin O-deethylase) or by specific LC-MS/MS assays. Relative enzyme activities were determined by comparison with those assayed with DMSO vehicle instead of inhibitor. IC50 values were calculated by nonlinear curve fitting using a sigmoidal model. Positive control inhibitors for each enzyme were tested in parallel.

Data set [8] has as its target CYP2C9 (Homo sapiens, UniProt P11712). As to the kind of experiment: Cytochrome P450 enzyme inhibition assay, CYP2C9. Type of data set: in vitro ADME. Set-up: incubated with human hepatic microsomal fractions and NADPH; from tissue; host or cells: human hepatic microsomal fractions. The note with it: human hepatic microsomal fractions, up to 25 μM. How it is done:
as §1

Data set [9] has as its target CYP2C19 (Homo sapiens, UniProt P33261). As to the kind of experiment: Cytochrome P450 enzyme inhibition assay, CYP2C19. The data set is classed as in vitro ADME. Set-up: incubated with human hepatic microsomal fractions and NADPH; from tissue; host or cells: human hepatic microsomal fractions. The note with it: human hepatic microsomal fractions, up to 25 μM. As to the method: as §1

T3 sequence (P08684 2-503): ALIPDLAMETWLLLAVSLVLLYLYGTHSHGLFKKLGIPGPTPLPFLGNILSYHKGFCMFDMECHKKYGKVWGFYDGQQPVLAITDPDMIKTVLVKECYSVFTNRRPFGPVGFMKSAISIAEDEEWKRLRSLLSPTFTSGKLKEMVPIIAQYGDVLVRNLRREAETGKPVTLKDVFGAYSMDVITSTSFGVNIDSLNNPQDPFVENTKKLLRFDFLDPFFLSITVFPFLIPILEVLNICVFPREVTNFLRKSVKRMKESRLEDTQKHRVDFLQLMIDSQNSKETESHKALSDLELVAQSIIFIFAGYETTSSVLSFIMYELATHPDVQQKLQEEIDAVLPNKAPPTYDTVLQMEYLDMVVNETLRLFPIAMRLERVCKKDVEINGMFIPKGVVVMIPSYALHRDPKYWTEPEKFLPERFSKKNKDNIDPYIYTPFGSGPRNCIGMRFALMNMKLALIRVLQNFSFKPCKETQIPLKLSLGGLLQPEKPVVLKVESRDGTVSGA
Sequence of CYP2C9 (P11712 whole entry): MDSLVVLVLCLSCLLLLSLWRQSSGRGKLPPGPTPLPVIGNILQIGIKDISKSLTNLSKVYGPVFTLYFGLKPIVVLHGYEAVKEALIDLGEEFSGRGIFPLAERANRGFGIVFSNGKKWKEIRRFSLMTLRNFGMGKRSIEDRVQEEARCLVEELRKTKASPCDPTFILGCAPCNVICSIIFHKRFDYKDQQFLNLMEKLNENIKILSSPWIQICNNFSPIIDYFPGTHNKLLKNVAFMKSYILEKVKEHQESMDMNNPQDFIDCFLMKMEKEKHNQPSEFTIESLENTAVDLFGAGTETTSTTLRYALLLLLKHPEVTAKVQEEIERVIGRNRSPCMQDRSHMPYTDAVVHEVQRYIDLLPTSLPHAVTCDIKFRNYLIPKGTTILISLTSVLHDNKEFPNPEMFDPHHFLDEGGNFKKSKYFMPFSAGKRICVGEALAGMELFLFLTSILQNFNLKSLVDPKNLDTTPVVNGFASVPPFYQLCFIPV
Sequence of CYP2C19 (P33261 whole entry): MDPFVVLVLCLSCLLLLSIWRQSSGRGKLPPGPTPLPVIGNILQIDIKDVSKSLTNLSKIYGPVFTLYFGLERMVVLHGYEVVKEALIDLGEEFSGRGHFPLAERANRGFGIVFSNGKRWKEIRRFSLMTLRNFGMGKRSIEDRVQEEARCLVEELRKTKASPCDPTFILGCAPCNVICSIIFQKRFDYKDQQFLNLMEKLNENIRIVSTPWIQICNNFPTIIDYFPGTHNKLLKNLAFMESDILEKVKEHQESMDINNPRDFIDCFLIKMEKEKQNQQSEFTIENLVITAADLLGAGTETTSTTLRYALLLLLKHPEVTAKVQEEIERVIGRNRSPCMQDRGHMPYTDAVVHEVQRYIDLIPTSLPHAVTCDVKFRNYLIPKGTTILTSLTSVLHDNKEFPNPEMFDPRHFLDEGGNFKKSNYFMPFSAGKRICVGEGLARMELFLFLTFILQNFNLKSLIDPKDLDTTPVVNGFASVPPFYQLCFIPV
T1 sequence (P23284 34-216): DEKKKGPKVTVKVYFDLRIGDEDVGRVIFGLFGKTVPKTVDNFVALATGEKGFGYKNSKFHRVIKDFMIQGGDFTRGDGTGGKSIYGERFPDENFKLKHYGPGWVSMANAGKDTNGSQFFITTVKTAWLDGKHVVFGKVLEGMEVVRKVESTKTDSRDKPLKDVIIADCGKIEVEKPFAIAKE

The IC50 is the concentration needed to halve the response being measured. In the case of `CSCCC(NC(=O)NCc1ccc(N)cc1)C(=O)N1CCCC1c1ccccc1SC.O=C(O)C(F)(F)F` (stereo not shown) [Compound 30], the IC50 in data set [1] was found to be 1.9 ± 1.5 µM. Also, in data set [2], the “Solubility HCl (pH 1.0)” value is on record as greater than 100 and the “Solubility PBS (pH 7.4)” value is recorded as greater than 100. Moreover, in data set [2] (listed as compound 30), the “Solubility HCl (pH 1.0)” value is “very soluble” and the “Solubility PBS (pH 7.4)” value is reported as “very soluble”. Also, in [3], the “24-hour stability HCl (pH 1.0)” value is 92% and the “24-hour stability PBS (pH 7.4)” value is 100%. For the same molecule, the “24-hour stability PBS (pH 7.4)” value in data set [3] (listed as compound 30) is recorded as “not degraded”. In data set [4], the “Human plasma binding Bound” value is 85.1% and the “Human plasma binding Unbound” value stood at 14.9%. For the same molecule, the “Hepatic microsomal stability, T1/2” value in data set [5] is 35.5 min. For the same molecule, the “Rate of metabolism by human cytochrome P450 CYP1A2” value in [6] is given as less than 0.12 pmol/pmol P450/min. Also, the “Rate of metabolism by human cytochrome P450 CYP1A2” value in [6] (listed as compound 30) is on record as “Neither compound 29 nor compound 30 was metabolized”. For the same molecule, in data set [7], inhibition was half-maximal at 0.6 µM (IC50) and the “Inhibition of cytochrome P450 activity, IC50 CYP3A4” value was “potent inhibitors”. In [8], the IC50 was greater than 25 µM and the “Inhibition of cytochrome P450 activity, IC50 CYP2C9” value is reported as “Neither compound 29 nor compound 30 significantly inhibited”. Further, in data set [9], the IC50 is greater than 25 µM and the “Inhibition of cytochrome P450 activity, IC50 CYP2C19” value was “Neither compound 29 nor compound 30 significantly inhibited”.
